# Reference: PubChem BioAssay AID212 (DTP/NCI, 2004)
# Values joined by “and” are separate entries in the source; they are usually repeats but may differ in a detail not shown here. Identical values can stand only once. Records with an inconclusive call do not appear.
# Test system: BDF1 mice, colon carcinoma 38 sc, T/C %
# Assay: NCI In Vivo Anticancer Drug Screen. Data for tumor model Colon Carcinoma 38 (subcutaneous) in B6D2F1 (BDF1) mice
# Details: endpoint: median tumor weight (est.), higher = larger tumour
# How it was run: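 Transplantable tumor in mice; compound-treated vs vehicle-dosed controls. Measured survival or tumor size; value = T ÷ C.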
# [1] = dose: 12.5 mg/kg/injection, schedule: Q07DX002 (ip), vehicle: saline
# [2] = dose: 25.0 mg/kg/injection, schedule: Q07DX002 (ip), vehicle: saline
# [3] = dose: 50.0 mg/kg/injection, schedule: Q07DX002 (ip), vehicle: saline
# [4] = dose: 100.0 mg/kg/injection, schedule: Q07DX002 (ip), vehicle: saline
# [5] = dose: 200.0 mg/kg/injection, schedule: Q07DX002 (ip), vehicle: saline
# [6] = dose: 6.25 mg/kg/injection, schedule: Q07DX002 (ip), vehicle: saline
# [7] = dose: 6.25 mg/kg/injection, schedule: Q07DX003 (ip), vehicle: Klucel (hydroxypropylcellulose) (HPC)
# [8] = dose: 100.0 mg/kg/injection, schedule: Q07DX003 (ip), vehicle: Klucel (hydroxypropylcellulose) (HPC)
# [9] = dose: 12.5 mg/kg/injection, schedule: Q07DX002 (ip), vehicle: saline with Tween-80
# [10] = dose: 25.0 mg/kg/injection, schedule: Q07DX002 (ip), vehicle: saline with Tween-80
# [11] = dose: 50.0 mg/kg/injection, schedule: Q07DX002 (ip), vehicle: saline with Tween-80
# [12] = dose: 6.25 mg/kg/injection, schedule: Q07DX002 (ip), vehicle: Klucel (hydroxypropylcellulose) (HPC)
# [13] = dose: 12.5 mg/kg/injection, schedule: Q07DX002 (ip), vehicle: Klucel (hydroxypropylcellulose) (HPC)
# [14] = dose: 25.0 mg/kg/injection, schedule: Q07DX002 (ip), vehicle: Klucel (hydroxypropylcellulose) (HPC)
# [15] = dose: 50.0 mg/kg/injection, schedule: Q07DX002 (ip), vehicle: Klucel (hydroxypropylcellulose) (HPC)
# [16] = dose: 100.0 mg/kg/injection, schedule: Q07DX002 (ip), vehicle: Klucel (hydroxypropylcellulose) (HPC)
compound,measurement,setting,value
O=C(CCBr)N1CCN(C(=O)CCBr)CC1,T/C,"dose: 10.0 mg/kg/injection, schedule: Q07DX002 (ip), vehicle: saline with Tween-80",90 % of control
same,T/C,"dose: 10.0 mg/kg/injection, schedule: Q07DX002 (ip), vehicle: water",172 % of control
same,T/C,"dose: 20.0 mg/kg/injection, schedule: Q07DX002 (ip), vehicle: saline with Tween-80",111 % of control
same,T/C,"dose: 20.0 mg/kg/injection, schedule: Q07DX002 (ip), vehicle: water",109 % of control
same,T/C,"dose: 40.0 mg/kg/injection, schedule: Q07DX002 (ip), vehicle: saline with Tween-80",60 % of control
same,T/C,"dose: 40.0 mg/kg/injection, schedule: Q07DX002 (ip), vehicle: water",157 % of control
same,T/C,"dose: 80.0 mg/kg/injection, schedule: Q07DX002 (ip), vehicle: saline with Tween-80",69 % of control and 78 % of control
same,T/C,"dose: 80.0 mg/kg/injection, schedule: Q07DX002 (ip), vehicle: water",120 % of control
same,T/C,"dose: 160.0 mg/kg/injection, schedule: Q07DX002 (ip), vehicle: water",91 % of control
same,T/C,"dose: 320.0 mg/kg/injection, schedule: Q07DX002 (ip), vehicle: water",67 % of control
COc1ccc(CC2C(=O)NC(C)C(=O)N(C)C3C(=O)N(C)C(Cc4ccc(O)c(c4)Oc4ccc(cc4)C3O)C(=O)NC(C)C(=O)NC(C)C(=O)N2C)cc1 (centres undefined),T/C,"dose: 0.5 mg/kg/injection, schedule: Q07DX003 (ip), vehicle: Klucel (hydroxypropylcellulose) (HPC)",98 % of control
same,T/C,"dose: 1.0 mg/kg/injection, schedule: Q07DX003 (ip), vehicle: Klucel (hydroxypropylcellulose) (HPC)",106 % of control
same,T/C,"dose: 4.0 mg/kg/injection, schedule: Q07DX003 (ip), vehicle: Klucel (hydroxypropylcellulose) (HPC)",182 % of control
same,T/C,"dose: 8.0 mg/kg/injection, schedule: Q07DX003 (ip), vehicle: Klucel (hydroxypropylcellulose) (HPC)",159 % of control
same,T/C,"dose: 16.0 mg/kg/injection, schedule: Q07DX003 (ip), vehicle: Klucel (hydroxypropylcellulose) (HPC)",44 % of control
Cc1cn(C2CC3[O][Sn]([c]4ccccc4)([c]4ccccc4)[O]CC3O2)c(=O)[nH]c1=O (centres undefined),T/C,[1],110 % of control
same,T/C,[2],100 % of control
same,T/C,[3],95 % of control
same,T/C,[4],110 % of control
same,T/C,[5],99 % of control
CSC(SC)=C1C(=O)NC(=O)NC1=O,T/C,[6],85 % of control
same,T/C,[1],70 % of control
same,T/C,[2],83 % of control
same,T/C,[3],45 % of control
NC(CCl)=NCC12CC3CC(CC(C3)C1)C2,T/C,[7],72 % of control
same,T/C,"dose: 25.0 mg/kg/injection, schedule: Q07DX003 (ip), vehicle: Klucel (hydroxypropylcellulose) (HPC)",39 % of control
same,T/C,[8],94 % of control
NC(N)=NC(N)=Nc1ccc(-c2ccc(N=C(N)N=C(N)N)cc2)cc1,T/C,"dose: 3.12 mg/kg/injection, schedule: Q07DX002 (ip), vehicle: saline with Tween-80",72 % of control
same,T/C,"dose: 6.25 mg/kg/injection, schedule: Q07DX002 (ip), vehicle: saline with Tween-80",61 % of control
same,T/C,[9],75 % of control
same,T/C,[10],69 % of control
same,T/C,[11],58 % of control
CCOC(=O)C1(c2ccccc2)C(=O)Oc2ccccc21 (centres undefined),T/C,[9],94 % of control
same,T/C,[10],112 % of control and 87 % of control
same,T/C,[11],61 % of control
same,T/C,"dose: 400.0 mg/kg/injection, schedule: Q07DX002 (ip), vehicle: saline with Tween-80",107 % of control
Cc1cc(O)c(O)c(Oc2cc(C)cc(O)c2O)c1,T/C,"dose: 0.35 mg/kg/injection, schedule: Q07DX002 (ip), vehicle: saline",96 % of control
same,T/C,"dose: 0.7 mg/kg/injection, schedule: Q07DX002 (ip), vehicle: saline",78 % of control
same,T/C,"dose: 1.4 mg/kg/injection, schedule: Q07DX002 (ip), vehicle: saline",77 % of control
COC1CC(CC2CCC(C)C(C(C)C(=O)O)O2)OC2(OC(C)(C3CCC(C)(C4OC(C5OC(O)(CO)C(C)CC5C)CC4C)O3)CC2C)C1C (centres undefined),T/C,"dose: 0.3 mg/kg/injection, schedule: Q07DX002 (ip), vehicle: Klucel (hydroxypropylcellulose) (HPC)",61 % of control
same,T/C,"dose: 0.31 mg/kg/injection, schedule: Q07DX002 (ip), vehicle: Klucel (hydroxypropylcellulose) (HPC)",42 % of control
same,T/C,"dose: 1.25 mg/kg/injection, schedule: Q07DX002 (ip), vehicle: Klucel (hydroxypropylcellulose) (HPC)",74 % of control and 82 % of control
same,T/C,"dose: 2.5 mg/kg/injection, schedule: Q07DX002 (ip), vehicle: Klucel (hydroxypropylcellulose) (HPC)",58 % of control and 70 % of control
same,T/C,"dose: 5.0 mg/kg/injection, schedule: Q07DX002 (ip), vehicle: Klucel (hydroxypropylcellulose) (HPC)",46 % of control and 55 % of control
same,T/C,"dose: 10.0 mg/kg/injection, schedule: Q07DX002 (ip), vehicle: Klucel (hydroxypropylcellulose) (HPC)",52 % of control
C=C(Cl)C(=NC(C)(C)C)Nc1ccccc1C,T/C,[12],68 % of control
same,T/C,[13],96 % of control
same,T/C,[14],76 % of control
same,T/C,[15],84 % of control
same,T/C,[16],113 % of control
O=c1[nH]cnc2n[nH]nc12,T/C,[13],122 % of control
same,T/C,[14],110 % of control
same,T/C,[15],100 % of control
same,T/C,[16],87 % of control
same,T/C,"dose: 200.0 mg/kg/injection, schedule: Q07DX002 (ip), vehicle: Klucel (hydroxypropylcellulose) (HPC)",77 % of control
same,T/C,"dose: 400.0 mg/kg/injection, schedule: Q07DX002 (ip), vehicle: Klucel (hydroxypropylcellulose) (HPC)",88 % of control
C1CCC2OCCOCCOC3CCCCC3OCCOCCOC2C1 (centres undefined),T/C,"dose: 3.12 mg/kg/injection, schedule: Q07DX002 (ip), vehicle: Klucel (hydroxypropylcellulose) (HPC)",210 % of control and 96 % of control
same,T/C,[12],176 % of control
same,T/C,[13],85 % of control
same,T/C,[15],85 % of control
O=S(=O)(CCl)OCCCl,T/C,[9],103 % of control
same,T/C,[10],111 % of control
same,T/C,[11],58 % of control
same,T/C,"dose: 100.0 mg/kg/injection, schedule: Q07DX002 (ip), vehicle: saline with Tween-80",55 % of control
O=C1C(O)=C(c2ccccc2)C(=O)C(O)=C1c1ccccc1,T/C,[9],103 % of control
same,T/C,[1],89 % of control
same,T/C,[10],111 % of control
same,T/C,[2],55 % of control
same,T/C,[11],86 % of control
same,T/C,[3],106 % of control
same,T/C,[4],105 % of control
same,T/C,[5],102 % of control
[Cl][Sn]([c]1ccccc1)[c]1ccccc1,T/C,[6],113 % of control
same,T/C,[1],108 % of control
same,T/C,"dose: 12.5 mg/kg/injection, schedule: Q09DX002 (ip), vehicle: saline",95 % of control
same,T/C,[2],89 % of control
same,T/C,"dose: 25.0 mg/kg/injection, schedule: Q09DX002 (ip), vehicle: saline",93 % of control
CN(Cc1cnc2nc(N)nc(N)c2n1)c1c(Cl)cc(C(=O)NC(CCC(=O)O)C(=O)O)cc1Cl (centres undefined),T/C,"dose: 3.12 mg/kg/injection, schedule: Q07DX003 (ip), vehicle: Klucel (hydroxypropylcellulose) (HPC)",155 % of control
same,T/C,[7],117 % of control
same,T/C,"dose: 12.5 mg/kg/injection, schedule: Q07DX003 (ip), vehicle: suspension in saline",87 % of control
same,T/C,"dose: 25.0 mg/kg/injection, schedule: Q07DX003 (ip), vehicle: suspension in saline",124 % of control
same,T/C,"dose: 50.0 mg/kg/injection, schedule: Q07DX003 (ip), vehicle: Klucel (hydroxypropylcellulose) (HPC)",72 % of control
same,T/C,"dose: 50.0 mg/kg/injection, schedule: Q07DX003 (ip), vehicle: suspension in saline",77 % of control
same,T/C,[8],90 % of control
same,T/C,"dose: 100.0 mg/kg/injection, schedule: Q07DX003 (ip), vehicle: suspension in saline",86 % of control
same,T/C,"dose: 200.0 mg/kg/injection, schedule: Q07DX003 (ip), vehicle: Klucel (hydroxypropylcellulose) (HPC)",102 % of control
same,T/C,"dose: 200.0 mg/kg/injection, schedule: Q07DX003 (ip), vehicle: suspension in saline",81 % of control
same,T/C,"dose: 400.0 mg/kg/injection, schedule: Q07DX003 (ip), vehicle: Klucel (hydroxypropylcellulose) (HPC)",62 % of control
same,T/C,"dose: 400.0 mg/kg/injection, schedule: Q07DX003 (ip), vehicle: suspension in saline",101 % of control
